In article PMC10791743, “Selective CK1α degraders exert antiproliferative activity against a broad range of human cancer cell lines” (Nature Communications, 2024):
“Also recorded” adds a separate entry of the source. Read-outs that look alike come from different tables or passages of the source.

What was measured:
SNU-5 = assay: cells; set-up: Oncolines panel cell viability, ATPlite 1Step luminescence, duplicate 9-point dose response, IC50; details: Homo sapiens, SNU-5; 72 h viability; read-out: SJ3149
Procedure: (§1) Cell viability assays were performed as previously described. In brief, cells were seeded in a 384-well plate at an optimized density. The starting cell number was determined after 24 h incubation by adding ATPlite 1Step (Perkin Elmer, Groningen, the Netherlands) to each well and recording luminescence on an Envision multimode reader (Perkin Elmer, Waltham, MA). After the addition of a duplicate 9-point dilution series of SJ3149, cells were incubated for another 72 h, followed by cell counting using ATPlite 1Step. The dilution series ranged from 3.2 to 31,600 nM or was diluted 100-fold for the most sensitive cell lines to ideally capture the complete dose–response curve. Percentage viability was determined at each compound concentration by relating the observed signal to a vehicle-treated control, that is, medium containing 0.4% (v/v) DMSO. Compound IC50 values were calculated by fitting a 4-parameter logistic curve to the percentage viability values using IDBS XLfit5 (IDBS, Guildford, UK). The IC50 was limited to the maximum tested compound concentration when the IC50 exceeded the maximum tested concentration. […] To evaluate the compound’s effect and potential therapeutic application across a diverse range of human cancers, we profiled SJ3149 in Oncolines® panel consisting of 115 human cancer cell lines, of which 86 were solid tumor and 29 hematologic cell lines, including MOLM-13. Effect on cell viability was monitored using ATPLite™ (Perkin Elmer), which measures intracellular ATP content as an indirect readout of cell number, like CellTiter Glo.

SW480 = assay: cells; set-up: Oncolines panel cell viability, ATPlite 1Step luminescence, duplicate 9-point dose response, IC50; details: Homo sapiens, SW480; 72 h viability; read-out: SJ3149
Procedure: as §1

COLO 829 = assay: cells; set-up: Oncolines panel cell viability, ATPlite 1Step luminescence, duplicate 9-point dose response, IC50; details: Homo sapiens, COLO-829; 72 h viability; read-out: SJ3149
Procedure: as §1

K-562 = assay: cells; set-up: Oncolines panel cell viability, ATPlite 1Step luminescence, duplicate 9-point dose response, IC50; details: Homo sapiens, K562; 72 h viability; read-out: SJ3149
Procedure: as §1

SW837 = assay: cells; set-up: Oncolines panel cell viability, ATPlite 1Step luminescence, duplicate 9-point dose response, IC50; details: Homo sapiens, SW837; 72 h viability; read-out: SJ3149
Procedure: as §1

[1] = test system: 115 human cancer cell lines; assay: Oncolines panel cell viability assay (ATPlite, 72 h); type: cell-based; details: for IC50: Homo sapiens
Source text: To evaluate the compound’s effect and potential therapeutic application across a diverse range of human cancers, we profiled SJ3149 in Oncolines® panel consisting of 115 human cancer cell lines, of which 86 were solid tumor and 29 hematologic cell lines, including MOLM-13. Effect on cell viability was monitored using ATPLite™ (Perkin Elmer), which measures intracellular ATP content as an indirect readout of cell number, like CellTiter Glo.
Cell lines were purchased from the American Type Culture Collection (ATCC) (Manassas, VA, USA) or the German Collection of Microorganisms and Cell Cultures (DSMZ) (Braunschweig, Germany). All experiments were carried out within ten passages of the original vials. Authenticity of the cell lines was confirmed by short tandem repeat analysis at the respective provider.
Cell viability assays were performed as previously described. In brief, cells were seeded in a 384-well plate at an optimized density. The starting cell number was determined after 24 h incubation by adding ATPlite 1Step (Perkin Elmer, Groningen, the Netherlands) to each well and recording luminescence on an Envision multimode reader (Perkin Elmer, Waltham, MA). After the addition of a duplicate 9-point dilution series of SJ3149, cells were incubated for another 72 h, followed by cell counting using ATPlite 1Step. The dilution series ranged from 3.2 to 31,600 nM or was diluted 100-fold for the most sensitive cell lines to ideally capture the complete dose–response curve. Percentage viability was determined at each compound concentration by relating the observed signal to a vehicle-treated control, that is, medium containing 0.4% (v/v) DMSO. Compound IC50 values were calculated by fitting a 4-parameter logistic curve to the percentage viability values using IDBS XLfit5 (IDBS, Guildford, UK). The IC50 was limited to the maximum tested compound concentration when the IC50 exceeded the maximum tested concentration.

SMILES: O=C1CCC(N2Cc3cc(Nc4noc5ccccc45)ccc3C2=O)C(=O)N1 (centres unmarked) [SJ3149]
- IC50 (SNU-5): > 31600 nM
- IC50 (SW480): > 31600 nM
- IC50 (COLO 829): > 31600 nM
- IC50 (K-562): > 31600 nM
- IC50 (SW837): > 31600 nM
- Inhibition of viability in Oncolines panel cell lines ([1]; ATPlite, 72 h): potently inhibited the viability of AML cell lines; also recorded: potently inhibited the viability of multiple cell lines derived from solid tumors; also recorded: low nanomolar or even sub-nanomolar potency
- IC50 ([1]; 769-P, cell line 769-P, Renal cell carcinoma, TP53 Wild-type, read-out: IC50): 101 nM
- IC50 ([1]; A204, cell line A-204, Embryonal rhabdomyosarcoma, TP53 Wild-type, read-out: IC50): 16 nM
- IC50 ([1]; A498, cell line A-498, Renal cell carcinoma, TP53 Wild-type, read-out: IC50): 5660 nM
- IC50 ([1]; A549, cell line A-549, Lung adenocarcinoma, TP53 Wild-type, read-out: IC50): 38 nM
- IC50 ([1]; A-375, cell line A375, Amelanotic melanoma, TP53 Wild-type, read-out: IC50): 33 nM
- IC50 ([1]; ACHN, cell line ACHN, Papillary renal cell carcinoma, TP53 Wild-type, read-out: IC50): 187 nM
- IC50 ([1]; AU565, cell line AU-565, Breast adenocarcinoma, TP53 Mutant, read-out: IC50): 19200 nM
- IC50 ([1]; B-cell, HT, Diffuse large B-cell lymphoma, read-out: IC50): > 31600 nM
- IC50 ([1]; B-cell, RL, Diffuse large B-cell lymphoma, TP53 Mutant, read-out: IC50): 27200 nM
- IC50 ([1]; B-cell, cell line DB, Diffuse large B-cell lymphoma, TP53 Mutant, read-out: IC50): > 31600 nM
- IC50 ([1]; BT-20, cell line BT-20, Invasive ductal carcinoma, TP53 Mutant, read-out: IC50): 30 nM
- IC50 ([1]; BT-549, cell line BT-549, Invasive ductal carcinoma, TP53 Mutant, read-out: IC50): 12 nM
- IC50 ([1]; CCRF-CEM, cell line CCRF-CEM, Childhood T acute lymphoblastic leukemia, TP53 Mutant, read-out: IC50): 24100 nM
- IC50 ([1]; CCRF-HSB-2, CCRF-HSB-2 cells, T-ALL, read-out: IC50): 16 nM
- IC50 ([1]; CCRF-HSB-2, cell line CCRF-HSB-2, Childhood T acute lymphoblastic leukemia, TP53 Wild-type, read-out: IC50): 16 nM
- IC50 ([1]; CTV-1, cell line CTV-1, Adult T acute lymphoblastic leukemia, TP53 Wild-type, read-out: IC50): 212 nM
- IC50 ([1]; DU-4475, cell line DU4475, Breast carcinoma, TP53 Wild-type, read-out: IC50): 16 nM
- IC50 ([1]; HuTu80, HuTu 80, Duodenal adenocarcinoma, read-out: IC50): 4.6 nM
- IC50 ([1]; J82, Bladder carcinoma, read-out: IC50): > 31600 nM
- IC50 ([1]; JAR, Gestational choriocarcinoma, read-out: IC50): 69 nM
- IC50 ([1]; JM-1, B acute lymphoblastic leukemia, read-out: IC50): 39 nM
- IC50 ([1]; Jurkat E6.1, Jurkat E6.1, Childhood T acute lymphoblastic leukemia, read-out: IC50): 21200 nM
- IC50 ([1]; KATO III, Signet ring cell gastric adenocarcinoma, read-out: IC50): 31400 nM
- IC50 ([1]; KG-1, Adult acute myeloid leukemia, read-out: IC50): 3480 nM
- IC50 ([1]; KLE, Endometrial adenocarcinoma, read-out: IC50): 28 nM
- IC50 ([1]; KU812, KU812, Chronic myelogenous leukemia, read-out: IC50): 0.75 nM
- IC50 ([1]; LNCaP, LNCaP FGC, Prostate carcinoma, read-out: IC50): 91 nM
- IC50 ([1]; LS174T, LS 174T, Colon adenocarcinoma, read-out: IC50): 16 nM
- IC50 ([1]; LoVo, Colon adenocarcinoma, read-out: IC50): 0.28 nM
- IC50 ([1]; MCF7, MCF7, Invasive ductal carcinoma, read-out: IC50): 18 nM
- IC50 ([1]; MOLM-13, MOLM-13, Adult acute myeloid leukemia, read-out: IC50): 4.2 nM
- IC50 ([1]; MOLM-13, MOLM-13 cells, AML, read-out: IC50): 4.2 nM
- IC50 ([1]; MOLT-4, MOLT-4, Adult T acute lymphoblastic leukemia, read-out: IC50): 35 nM
- IC50 ([1]; NB4, Acute promyelocytic leukemia with PML-RARA, read-out: IC50): > 31600 nM
- IC50 ([1]; NCCIT, Testicular embryonal carcinoma, read-out: IC50): 4.2 nM
- IC50 ([1]; NOMO-1, NOMO-1, Adult acute monocytic leukemia, read-out: IC50): 53 nM
- IC50 ([1]; PA-1, Ovarian mixed germ cell tumor, TP53 Wild-type, read-out: IC50): 2.8 nM
- IC50 ([1]; PC-3, Prostate carcinoma, TP53 Mutant, read-out: IC50): > 31600 nM
- IC50 ([1]; RD, Embryonal rhabdomyosarcoma, TP53 Mutant, read-out: IC50): 104 nM
- IC50 ([1]; RKO, Colon carcinoma, TP53 Wild-type, read-out: IC50): 26800 nM
- IC50 ([1]; RL95-2, RL95-2, Endometrial adenosquamous carcinoma, TP53 Mutant, read-out: IC50): 58 nM
- IC50 ([1]; RPMI 8402, RPMI-8402, Childhood T acute lymphoblastic leukemia, TP53 Wild-type, read-out: IC50): 24200 nM
- IC50 ([1]; RS4-11, RS4-11, Adult B acute lymphoblastic leukemia, TP53 Wild-type, read-out: IC50): 2.1 nM
- IC50 ([1]; RT4, Bladder carcinoma, TP53 Wild-type, read-out: IC50): 1240 nM
- IC50 ([1]; SEM, Childhood B acute lymphoblastic leukemia, TP53 Mutant, read-out: IC50): 134 nM
- IC50 ([1]; SET-2, SET-2, Adult acute megakaryoblastic leukemia, TP53 Mutant, read-out: IC50): 32 nM
- IC50 ([1]; SJCRH30, Alveolar rhabdomyosarcoma, TP53 Mutant, read-out: IC50): > 31600 nM
- IC50 ([1]; SK-N-FI, Neuroblastoma, TP53 Mutant, read-out: IC50): 36 nM
- IC50 ([1]; SR, Anaplastic large cell lymphoma, TP53 Mutant, read-out: IC50): 58 nM
- IC50 ([1]; SR, SR cells, ALCL, read-out: IC50): 58 nM
- IC50 ([1]; SU-DHL-1, SU-DHL-1, Anaplastic large cell lymphoma, TP53 Mutant, read-out: IC50): 12900 nM
- IC50 ([1]; SU-DHL-6, SU-DHL-6, Diffuse large B-cell lymphoma, TP53 Mutant, read-out: IC50): 79 nM
- IC50 ([1]; SW48, SW48, Colon adenocarcinoma, TP53 Wild-type, read-out: IC50): 19 nM
- IC50 ([1]; SW900, SW900, Squamous cell lung carcinoma, TP53 Mutant, read-out: IC50): 419 nM
- IC50 ([1]; SW982, SW982, Biphasic synovial sarcoma, TP53 Wild-type, read-out: IC50): 11 nM
- IC50 ([1]; T24, Bladder carcinoma, TP53 Mutant, read-out: IC50): > 31600 nM
- IC50 ([1]; cell line 5637, Bladder carcinoma, TP53 Mutant, read-out: IC50): 27800 nM
- IC50 ([1]; cell line A388, Squamous cell carcinoma, TP53 Mutant, read-out: IC50): > 31600 nM
- IC50 ([1]; cell line AP-1060, Acute promyelocytic leukemia with PML-RARA, TP53 Unknown, read-out: IC50): 1.3 nM
- IC50 ([1]; cell line ES-2, Ovarian clear cell adenocarcinoma, TP53 Mutant, read-out: IC50): > 31600 nM
- IC50 ([1]; cell line TT (Hereditary thyroid gland medullary carcinoma), TP53 Wild-type, read-out: IC50): 2.2 nM
- IC50 ([1]; multiple cell lines from diverse tumor tissue origins, read-out: IC50 in insensitive cell lines): > 31600 nM
